Values after ≈ are worked out from the molar mass of the structure shown. One block for each molecule: values may come before it.
Columns and labels:
[1] = target: T1, Dipeptidase 1 (Homo sapiens) (UniProt P16444); experiment: Compound stability against human renal DHP-1 relative to imipenem (IMP); type: functional
T1 sequence (whole entry): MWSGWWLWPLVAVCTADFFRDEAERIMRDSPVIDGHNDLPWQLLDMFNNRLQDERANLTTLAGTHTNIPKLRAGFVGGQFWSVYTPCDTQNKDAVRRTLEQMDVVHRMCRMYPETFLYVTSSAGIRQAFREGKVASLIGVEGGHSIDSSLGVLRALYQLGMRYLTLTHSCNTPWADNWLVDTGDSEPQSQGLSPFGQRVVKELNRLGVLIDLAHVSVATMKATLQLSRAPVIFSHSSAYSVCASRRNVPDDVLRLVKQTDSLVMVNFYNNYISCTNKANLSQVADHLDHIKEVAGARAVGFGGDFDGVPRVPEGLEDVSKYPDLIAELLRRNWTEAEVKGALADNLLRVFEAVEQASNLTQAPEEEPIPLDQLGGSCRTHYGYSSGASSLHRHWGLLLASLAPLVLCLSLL

Proteus vulgaris = experiment: In vitro antibacterial activity against Proteus vulgaris IAM 1025.; type: functional
[2] = target: T2, Dipeptidase 1 (Sus scrofa) (UniProt P22412); experiment: Tested for stability of compound to swine renal DHP-1 relative to imipenem (IMP); type: functional
T2 sequence (whole entry): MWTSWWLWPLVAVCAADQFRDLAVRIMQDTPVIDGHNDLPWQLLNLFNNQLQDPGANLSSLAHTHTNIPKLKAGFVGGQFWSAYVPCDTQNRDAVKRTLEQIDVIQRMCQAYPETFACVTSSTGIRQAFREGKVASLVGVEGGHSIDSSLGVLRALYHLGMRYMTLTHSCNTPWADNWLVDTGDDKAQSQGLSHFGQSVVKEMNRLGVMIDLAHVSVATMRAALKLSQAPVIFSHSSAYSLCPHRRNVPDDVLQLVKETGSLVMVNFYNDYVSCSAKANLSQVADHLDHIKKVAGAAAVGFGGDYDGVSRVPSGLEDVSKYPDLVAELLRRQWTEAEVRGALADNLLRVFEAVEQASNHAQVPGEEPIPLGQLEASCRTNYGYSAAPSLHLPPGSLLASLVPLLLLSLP

[3] = Tested for urinary recovery in mice after subcutaneous administration of 20 mg/Kg; type: ADME, organism-based; conditions: mouse, urine, sc, read-out: Recovery
Pseudomonas aeruginosa [4] = experiment: In vitro antibacterial activity against Ps. auruginosa 26.; type: functional
Staphylococcus aureus [5] = experiment: In vitro antibacterial activity against Staphylococcus aureus 209P JC-1.; type: functional
Escherichia coli = experiment: In vitro antibacterial activity against Escherichia coli NIHJ JC-2.; type: functional
Staphylococcus aureus [6] = experiment: In vitro antibacterial activity against Staphylococcus aureus 3004 Methicillin-resistant Staphylococcus aureus.; type: functional
Pseudomonas aeruginosa [7] = experiment: Tested in vitro for antibacterial activity against Ps. aeruginosa 26; type: functional
[8] = target: T1, Dipeptidase 1 (Homo sapiens); experiment: Tested for stability of compound to human renal DHP-1 relative to imipenem (IMP); type: functional

Structure (SMILES): C[C@@H](O)[C@H]1C(=O)N2C(C(=O)O)=C(C3CCNC3)C[C@H]12 (stereo partly drawn)
- Stability [1]: 58%
- MIC (Proteus vulgaris): 12.5 µg/mL (≈ 46.9 µM)
- Stability [2]: 13%
- dose excreted [3]: 42%
- MIC (Pseudomonas aeruginosa [4]): 0.78 µg/mL (≈ 2.93 µM)
- MIC (Staphylococcus aureus [5]): < 0.025 µg/mL
- MIC (Escherichia coli): 0.39 µg/mL (≈ 1.46 µM)
- MIC (Staphylococcus aureus [6]): 100 µg/mL (≈ 376 µM)

Structure (SMILES): CC(=N)N1CC[C@@H](C2=C(C(=O)O)N3C(=O)[C@H]([C@@H](C)O)[C@H]3C2)C1
- Stability [1]: 34%
- MIC (Proteus vulgaris): 1.56 µg/mL (≈ 5.08 µM)
- Stability [2]: 8.4%
- dose excreted [3]: 44%
- MIC (Pseudomonas aeruginosa [4]): 0.78 µg/mL (≈ 2.54 µM)
- MIC (Staphylococcus aureus [5]): < 0.025 µg/mL
- MIC (Escherichia coli): 0.2 µg/mL (≈ 0.651 µM)
- MIC (Staphylococcus aureus [6]): 6.25 µg/mL (≈ 20.3 µM)

Structure (SMILES): C[C@@H](O)[C@H]1C(=O)N2C(C(=O)O)=C([C@@H]3CCN(C(=N)CC(N)=O)C3)C[C@H]12
- Stability [1]: 14%
- MIC (Proteus vulgaris): 1.56 µg/mL (≈ 4.45 µM)
- Stability [2]: 13%
- dose excreted [3]: 43%
- MIC (Pseudomonas aeruginosa [4]): 0.39 µg/mL (≈ 1.11 µM)
- MIC (Staphylococcus aureus [5]): < 0.025 µg/mL
- MIC (Escherichia coli): 0.39 µg/mL (≈ 1.11 µM)
- MIC (Staphylococcus aureus [6]): 6.25 µg/mL (≈ 17.8 µM)

Structure (SMILES): C/C(=C\[C@@]1(C)CCCN1)C1=C(C(=O)O)N2C(=O)[C@H]([C@@H](C)O)[C@H]2C1
- Stability [1]: 45%
- MIC (Proteus vulgaris): 1.56 µg/mL (≈ 4.87 µM)
- Stability [2]: 4.3%
- dose excreted [3]: 61%
- MIC (Pseudomonas aeruginosa [4]): 3.13 µg/mL (≈ 9.77 µM)
- MIC (Staphylococcus aureus [5]): < 0.025 µg/mL
- MIC (Escherichia coli): 0.39 µg/mL (≈ 1.22 µM)
- MIC (Staphylococcus aureus [6]): 50 µg/mL (≈ 156 µM)

Structure (SMILES): C[C@@H](O)[C@H]1C(=O)N2C(C(=O)O)=C([C@@H]3CCN(C=N)C3)C[C@H]12
- Stability [1]: 39%
- MIC (Proteus vulgaris): 1.56 µg/mL (≈ 5.32 µM)
- Stability [2]: 15%
- dose excreted [3]: 41%
- MIC (Pseudomonas aeruginosa [4]): 0.2 µg/mL (≈ 0.682 µM)
- MIC (Staphylococcus aureus [5]): < 0.025 µg/mL
- MIC (Escherichia coli): 0.1 µg/mL (≈ 0.341 µM)
- MIC (Staphylococcus aureus [6]): 25 µg/mL (≈ 85.2 µM)

Structure (SMILES): C[C@@H](O)[C@H]1C(=O)N2C(C(=O)O)=C([C@@H]3CCN(C(=N)CO)C3)C[C@H]12
- MIC (Proteus vulgaris): 3.13 µg/mL (≈ 9.68 µM)
- Stability [2]: 13%
- dose excreted [3]: 52%
- MIC (Pseudomonas aeruginosa [4]): 0.78 µg/mL (≈ 2.41 µM)
- MIC (Staphylococcus aureus [5]): < 0.025 µg/mL
- MIC (Escherichia coli): 0.39 µg/mL (≈ 1.21 µM)
- MIC (Staphylococcus aureus [6]): 25 µg/mL (≈ 77.3 µM)

Structure (SMILES): C[C@@H](O)[C@H]1C(=O)N2C(C(=O)O)=C([C@@H]3CCNC3)C[C@H]12
- Stability [1]: 48%
- MIC (Proteus vulgaris): 6.25 µg/mL (≈ 23.5 µM)
- Stability [2]: 8.8%
- dose excreted [3]: 37%
- MIC (Pseudomonas aeruginosa [4]): 0.39 µg/mL (≈ 1.46 µM)
- MIC (Staphylococcus aureus [5]): < 0.025 µg/mL
- MIC (Escherichia coli): 0.2 µg/mL (≈ 0.751 µM)
- MIC (Staphylococcus aureus [6]): 50 µg/mL (≈ 188 µM)

Structure (SMILES): C[C@@H](O)[C@H]1C(=O)N2C(C(=O)O)=C([C@@H]3CCN(C4=NCCC4)C3)C[C@H]12
- Stability [1]: 28%
- MIC (Proteus vulgaris): 1.56 µg/mL (≈ 4.68 µM)
- Stability [2]: 8.4%
- dose excreted [3]: 50%
- MIC (Pseudomonas aeruginosa [4]): 0.39 µg/mL (≈ 1.17 µM)
- MIC (Staphylococcus aureus [5]): < 0.025 µg/mL
- MIC (Escherichia coli): 0.2 µg/mL (≈ 0.6 µM)
- MIC (Staphylococcus aureus [6]): 12.5 µg/mL (≈ 37.5 µM)

Structure (SMILES): C[C@@H](O)[C@H]1C(=O)N2C(C(=O)O)=C(SCCNC=N)C[C@H]12 [IMIPENEM ANHYDROUS]
- Stability [1]: 100%
- MIC (Proteus vulgaris): 3.1 µg/mL (≈ 10.4 µM)
- Stability [2]: 100%
- MIC (Pseudomonas aeruginosa [4]): 0.78 µg/mL (≈ 2.61 µM)
- MIC (Staphylococcus aureus [5]): < 0.025 µg/mL
- MIC (Escherichia coli): 0.78 µg/mL (≈ 2.61 µM)
- MIC (Staphylococcus aureus [6]): 100 µg/mL (≈ 334 µM)

Structure (SMILES): C[C@@H](O)[C@H]1C(=O)N2C(C(=O)O)=C([C@@H]3CCN(C(=N)COC(N)=O)C3)C[C@H]12
- Stability [1]: 13%
- MIC (Proteus vulgaris): 1.56 µg/mL (≈ 4.26 µM)
- dose excreted [3]: 42%
- MIC (Pseudomonas aeruginosa [4]): 0.78 µg/mL (≈ 2.13 µM)
- MIC (Staphylococcus aureus [5]): < 0.025 µg/mL
- MIC (Escherichia coli): 0.1 µg/mL (≈ 0.273 µM)
- MIC (Staphylococcus aureus [6]): 6.25 µg/mL (≈ 17.1 µM)

Structure (SMILES): C[C@@H](O)[C@H]1C(=O)N2C(C(=O)O)=C(C3CCNCC3)C[C@H]12
- MIC (Proteus vulgaris): 12.5 µg/mL (≈ 44.6 µM)
- Stability [2]: 18%
- dose excreted [3]: 43%
- MIC (Pseudomonas aeruginosa [7]): 0.78 µg/mL (≈ 2.78 µM)
- MIC (Staphylococcus aureus [5]): 0.05 µg/mL (≈ 0.178 µM)
- MIC (Escherichia coli): 1.56 µg/mL (≈ 5.56 µM)
- MIC (Staphylococcus aureus [6]): > 100 µg/mL

Structure (SMILES): CC(=N)N1CC[C@H](SC2=C(C(=O)O)N3C(=O)[C@H]([C@@H](C)O)[C@H]3C2)C1 [PANIPENEM]
- MIC (Proteus vulgaris): 1.56 µg/mL (≈ 4.6 µM)
- dose excreted [3]: 25%
- MIC (Pseudomonas aeruginosa [4]): 0.39 µg/mL (≈ 1.15 µM)
- MIC (Staphylococcus aureus [5]): 0.025 µg/mL (≈ 0.0737 µM)
- MIC (Escherichia coli): 0.2 µg/mL (≈ 0.589 µM)
- MIC (Staphylococcus aureus [6]): 50 µg/mL (≈ 147 µM)

Structure (SMILES): C[C@@H](O)[C@H]1C(=O)N2C(C(=O)O)=C(C3CCCNC3)C[C@H]12 (stereo partly drawn)
- MIC (Proteus vulgaris): 25 µg/mL (≈ 89.2 µM)
- dose excreted [3]: 59%
- MIC (Pseudomonas aeruginosa [4]): 1.56 µg/mL (≈ 5.56 µM)
- MIC (Staphylococcus aureus [5]): < 0.025 µg/mL
- Stability [8]: 4.4%
- MIC (Escherichia coli): 0.39 µg/mL (≈ 1.39 µM)
- MIC (Staphylococcus aureus [6]): 50 µg/mL (≈ 178 µM)

Structure (SMILES): C[C@@H](O)[C@H]1C(=O)N2C(C(=O)O)=C(C3CNC3)C[C@H]12
- MIC (Proteus vulgaris): 3.13 µg/mL (≈ 12.4 µM)
- Stability [2]: 2%
- dose excreted [3]: 45%
- MIC (Pseudomonas aeruginosa [4]): 1.56 µg/mL (≈ 6.18 µM)
- MIC (Staphylococcus aureus [5]): 0.05 µg/mL (≈ 0.198 µM)
- MIC (Escherichia coli): 1.56 µg/mL (≈ 6.18 µM)
- MIC (Staphylococcus aureus [6]): 100 µg/mL (≈ 396 µM)

Structure (SMILES): C[C@@H](O)[C@H]1C(=O)N2C(C(=O)O)=C([C@H]3CCNC3)C[C@H]12
- Stability [1]: 78%
- MIC (Proteus vulgaris): 6.25 µg/mL (≈ 23.5 µM)
- Stability [2]: 16%
- dose excreted [3]: 46%
- MIC (Pseudomonas aeruginosa [4]): 0.78 µg/mL (≈ 2.93 µM)
- MIC (Staphylococcus aureus [5]): < 0.025 µg/mL
- MIC (Escherichia coli): 0.39 µg/mL (≈ 1.46 µM)
- MIC (Staphylococcus aureus [6]): 100 µg/mL (≈ 376 µM)

- dose excreted [3]: 29%
Structure (SMILES): C[C@@H](O)[C@H]1C(=O)N2C(C(=O)O)=C(SCCN=CN)C[C@H]12 [IMIPENEM ANHYDROUS]

Structure (SMILES): C[C@@H](O)[C@H]1C(=O)N2C(C(=O)O)=C([C@@H]3CCN(C(=N)CNC(N)=O)C3)C[C@H]12
- Stability [1]: 20%
- MIC (Proteus vulgaris): 3.13 µg/mL (≈ 8.57 µM)
- dose excreted [3]: 47%
- MIC (Pseudomonas aeruginosa [4]): 0.39 µg/mL (≈ 1.07 µM)
- MIC (Staphylococcus aureus [5]): < 0.025 µg/mL
- MIC (Escherichia coli): 0.2 µg/mL (≈ 0.547 µM)
- MIC (Staphylococcus aureus [6]): 25 µg/mL (≈ 68.4 µM)

Structure (SMILES): C/N=C/N1CC[C@@H](C2=C(C(=O)O)N3C(=O)[C@H]([C@@H](C)O)[C@H]3C2)C1
- Stability [1]: 91%
- MIC (Proteus vulgaris): 0.78 µg/mL (≈ 2.54 µM)
- Stability [2]: 7.8%
- dose excreted [3]: 48%
- MIC (Pseudomonas aeruginosa [4]): 0.39 µg/mL (≈ 1.27 µM)
- MIC (Staphylococcus aureus [5]): < 0.025 µg/mL
- MIC (Escherichia coli): 0.2 µg/mL (≈ 0.651 µM)
- MIC (Staphylococcus aureus [6]): 3.13 µg/mL (≈ 10.2 µM)
